Patent US20230099031A1, “BIFUNCTIONAL AGENTS FOR PROTEIN RECRUITMENT AND/OR DEGRADATION” (Orionis Biosciences, Inc., priority 2019, published 2023)

Molecular target: T1, CRBN (Homo sapiens, UniProt Q96SW2)
T1 construct: expressed in transfected cells; host or cells: HEK293T
Experiment: Competition Assay: MAPPIT-like, competition with trimethoprim-lenalidomide hybrid ligand for binding to CRBN in HEK293T cells
Format: cell-based
Conditions: protocol and reagents of Example 1; read-out: IC50 Competition
Text: A bait protein (protein A) is expressed as a fusion protein in which it is genetically fused to an engineered intracellular receptor domain of the leptin receptor, which is itself fused to the extracellular domain of the erythropoietin (Epo) receptor. Binding of Epo ligand to the EpoR component results in activation of receptor-associated intracellular JAK2. However, activated JAK2 cannot activate the leptin receptor to trigger STAT3 binding and its phosphorylation because its tyrosine residues, normally phosphorylated by activated JAK2, have been mutated. Reconstitution of a JAK2 phosphorylatable STAT3 docking site is instead created through interaction of a protein B with protein A, whereby protein B is fused to a cytoplasmic domain of the gp130 receptor (which now harbors appropriate tyrosine resides recognized by the activated JAK2 kinase). Thus, physical interaction of protein A with protein B reconstitutes and Epo triggers JAK2-STAT3 signaling pathway activation. Activation of STAT3 can be monitored by introduction of a STAT3-responsive reporter gene, including a luciferase-encoding gene or a gene encoding a fluorescent marker such as GFP or some other type of fluorescent protein (EGF etc.). In this manner, the MAPPIT assay provides a versatile assay to assess such recombinant protein-protein interactions, or compound- or hybrid ligand-induced protein-protein interactions, in intact cells.
Formation of the complex results in activation of a STAT-responsive luciferase reporter gene. That signal is set to 100% luciferase activity. In a separate sample set up, cells are prepared in the same manner but, in addition, co-incubated with a test compound whose interaction with CRBN is investigated. […] Increasing concentrations of test compound are assessed to determine CRBN binding efficiency as determined in this type of ligand competition experiment in living cells. Specificity of signal inhibition is assessed by a parallel experimental set up in which test compound effect is assessed for inhibition of signal generated by a control gp130 fusion protein (CTRL) that directly binds to the DHFR-fusion protein in the absence of hybrid ligand (i.e. a direct interaction of the proteins).
In more detail, HEK293T cells are cultured in Dulbecco's modified Eagle's medium supplemented with 10% fetal calf serum, incubated at 37° C., 8% CO2. […] Data points represent the average luciferase activity of triplicate samples derived from cells treated with leptin+test compound for the REM2 control (CTRL) or cells treated with leptin+hybrid ligand+test compound (CRBN) relative to leptin (CTRL) or leptin+hybrid ligand (CRBN) only treated samples (the signals obtained in absence of added test compound for both cases is set at 100% of luciferase activity on y-axis). Error bars represent standard deviations. Curves are fit using 4-parameter nonlinear regression in […] PRISM software

Row | IC50 [nM] | SMILES
1 | 30 | O=C1CCC(N2Cc3ccc(NCC(=O)N4Cc5ccccc5C4)cc3C2=O)C(=O)N1 (centres unmarked) [Compound C95330, 3-[6-[(2-isoindolin-2-yl-2-oxo-ethyl)amino]-1-oxo-isoindolin-2-yl]piperidine-2,6-dione]
2 | 591 | CN(Cc1cnn(C)c1)C(=O)CNc1ccc2c(c1)C(=O)N(C1CCC(=O)NC1=O)C2 (centres unmarked) [Compound C95333, 2-[[2-(2,6-dioxo-3-piperidyl)-3-oxo-isoindolin-5-yl]amino]-N-methyl-N-[(1-methylpyrazol-4-yl)methyl]acetamide]
3 | 11900 | CC1Cc2ccccc2N1C(=O)CNc1ccc2c(c1)C(=O)N(C1CCC(=O)NC1=O)C2 (centres unmarked) [Compound C95336, 3-[6-[[2-(2-methylindolin-1-yl)-2-oxo-ethyl]amino]-1-oxo-isoindolin-2-yl]piperidine-2,6-dione]
4 | 32.1 | CN(CC1CC1)C(=O)CNc1ccc2c(c1)C(=O)N(C1CCC(=O)NC1=O)C2 (centres unmarked) [Compound C95338, N-(cyclopropylmethyl)-2-[[2-(2,6-dioxo-3-piperidyl)-3-oxo-isoindolin-5-yl]amino]-N-methyl-acetamide]
5 | 10400 | C=CCC1c2ccccc2C(=O)N1C1CCC(=O)NC1=O (centres unmarked) [Compound C96413, 3-(1-allyl-3-oxo-isoindolin-2-yl)piperidine-2,6-dione]
6 | 214 | CN(C)c1ccc2c(c1)C(=O)N(C1CCC(=O)NC1=O)C2 (centres unmarked) [Compound C96622, 3-[6-(dimethylamino)-1-oxo-isoindolin-2-yl]piperidine-2,6-dione]
7 | 6320 | O=C1CCC(Nc2ncc3ccccc3n2)C(=O)N1 (centres unmarked) [Compound C97402, 3-(quinazolin-2-ylamino)piperidine-2,6-dione]
8 | 5770 | CC(C)(C)OC(=O)CC1c2ccccc2C(=O)N1C1CCC(=O)NC1=O (centres unmarked) [Compound C98053, t-butyl 2-[2-(2,6-dioxo-3-piperidyl)-3-oxo-isoindolin-1-yl]acetate]
9 | 9340 | O=C1CC=CC(C(=O)NC2CCC(=O)NC2=O)=N1 (centres unmarked) [Compound C98696, N-(2,6-dioxo-3-piperidyl)-2-oxo-3H-pyridine-6-carboxamide]
10 | 1370 | O=C1CCC(N2Cc3cccc([N+](=O)[O-])c3C2=O)C(=O)N1 (centres unmarked) [Compound C99884, 3-(7-nitro-1-oxo-isoindolin-2-yl)piperidine-2,6-dione]

More lines, now with the values behind:

Row | SMILES | IC50 [nM]
11 | O=C1CCC(N2Cc3ccc(NCC(=O)NC4CC4)cc3C2=O)C(=O)N1 (centres unmarked) [Compound C84963, N-cyclopropyl-2-[[2-(2,6-dioxo-3-piperidyl)-3-oxo-isoindolin-5-yl]amino]acetamide] | 1210
12 | CN(C)C(=O)CNc1ccc2c(c1)C(=O)N(C1CCC(=O)NC1=O)C2 (centres unmarked) [Compound C84964, 2-[[2-(2,6-dioxo-3-piperidyl)-3-oxo-isoindolin-5-yl]amino]-N,N-dimethyl-acetamide] | 266
13 | O=C1CCC(N2Cc3ccc(NCC(=O)Nc4ccccc4)cc3C2=O)C(=O)N1 (centres unmarked) [Compound C84965, 2-[[2-(2,6-dioxo-3-piperidyl)-3-oxo-isoindolin-5-yl]amino]-N-phenyl-acetamide] | 200
14 | O=C(CNc1ccc2c(c1)C(=O)N(C1CCC(=O)NC1=O)C2)NCc1ccccc1 (centres unmarked) [Compound C84966, N-benzyl-2-[[2-(2,6-dioxo-3-piperidyl)-3-oxo-isoindolin-5-yl]amino]acetamide] | 599
15 | CC(=O)NCC(=O)Nc1ccc2c(c1)C(=O)N(C1CCC(=O)NC1=O)C2 (centres unmarked) [Compound C84967, 2-acetamido-N-[2-(2,6-dioxo-3-piperidyl)-3-oxo-isoindolin-5-yl]acetamide] | 3150
16 | O=C1CCC(N2Cc3ccc(N4CCNC4=O)cc3C2=O)C(=O)N1 (centres unmarked) [Compound C84971, 3-[1-oxo-6-(2-oxoimidazolidin-1-yl)isoindolin-2-yl]piperidine-2,6-dione] | 1310
17 | O=C1CCC(N2Cc3ccc(NCC(=O)N4CCc5ccccc5C4)cc3C2=O)C(=O)N1 (centres unmarked) [Compound C95329] | 10300
